{"source": "patent US20260193244A1", "about": "(Protego Biopharma, Inc., priority 2022, published 2026)", "note": "Counter-ions that a name gives are not always drawn.", "data": [{"tested_on": "IRE1-XBP1s (HEK293 T-REx cells stably expressing the XBP1-RLuc splicing reporter)", "experiment": "IRE1-XBP1s activation Assay (XBP1-RLuc splicing reporter, luminescence relative to thapsigargin, with or without IRE1 inhibitor 4μ8C)", "assay_type": "cell-based", "details": "18 h, compound 10 μM, luminescence as percentage signal relative to thapsigargin (Tg) (500 nM, 18 h)", "experimental": "IRE1-XBP1s activation Assay: HEK293 T-REx cells stably expressing the XBP1-RLuc splicing reporter were treated with an IRE1-XBP1s activator provided herein (10 μM) in the presence or absence of the IRE1 active site inhibitor 4μ8C (32 μM) for 18 h. Luminescence was shown as the percentage signal relative to thapsigargin (Tg) (500 nM, 18 h).", "units": {"activation at 10 µM": "%"}, "values": [{"smiles": "Cc1ccc(OC2(C)CCCN(C(=O)Cn3cc(NC(=O)CCOc4ccccc4F)cn3)C2)c(N)c1", "note": "(stereo not drawn) [Compound 69, N-(1-(2-(3-(2-amino-4-methylphenoxy)-3-methylpiperidin-1-yl)-2-oxoethyl)-1H-pyrazol-4-yl)-3-(2-fluorophenoxy)propanamide]", "activation at 10 µM": "< 30"}, {"smiles": "CN(C(=O)Cn1cc(NC(=O)CCOc2ccccc2)cn1)C12CCC(Oc3ccc(C(F)(F)F)cc3)(CC1)CC2", "note": "[Compound 70]", "activation at 10 µM": "≥ 50"}, {"smiles": "Cc1ccc(O[C@H]2CCCN(C(=O)Cn3cc(NC(=O)CCOc4ccccc4F)cn3)C2)cc1", "note": "[Compound 71]", "activation at 10 µM": "≥ 50"}, {"smiles": "Cc1ccc(O[C@@H]2CCCN(C(=O)Cn3cc(NC(=O)CCOc4ccccc4F)cn3)C2)cc1", "note": "[Compound 72]", "activation at 10 µM": "≥ 50"}, {"smiles": "Cc1ccc(OCCN(C)C(=O)Cn2cc(NC(=O)C3CN(C(=O)OC(C)(C)C)c4ccccc4O3)cn2)cc1", "note": "(stereo not drawn) [Compound 73]", "activation at 10 µM": "< 30"}, {"smiles": "Cc1ccc(OC2CCCN(C(=O)Cn3cc(NC(=O)CCOc4ccccc4-c4ccccc4)cn3)C2)cc1", "note": "(stereo not drawn) [Compound 74]", "activation at 10 µM": "< 30"}, {"smiles": "Cc1ccc(OC2CCCN(C(=O)Cn3cc(NC(=O)CCOc4cncc(F)c4)cn3)C2)cc1", "note": "(stereo not drawn) [Compound 75]", "activation at 10 µM": "< 30"}, {"smiles": "Cc1ccc(OC2(C)CCCN(C(=O)Cn3cc(NC(=O)CCOc4ccccc4F)cn3)C2)cc1", "note": "(stereo not drawn) [Compound 77]", "activation at 10 µM": "30 to 50"}, {"smiles": "CC1(Oc2ccc(Br)cc2)CCCN(C(=O)Cn2cc(NC(=O)CCOc3ccccc3F)cn2)C1", "note": "(stereo not drawn) [Compound 78]", "activation at 10 µM": "< 30"}, {"smiles": "Cc1ccc(OC2CCCN(C(=O)Cn3cc(NC(=O)CCOc4cc(Cl)ccc4F)cn3)C2)cc1", "note": "(stereo not drawn) [Compound 80]", "activation at 10 µM": "≥ 50"}, {"smiles": "Cc1ccc(OC2CCCN(C(=O)Cn3cc(NC(=O)CCOc4ccccc4C(F)(F)F)cn3)C2)cc1", "note": "(stereo not drawn) [Compound 83]", "activation at 10 µM": "< 30"}, {"smiles": "Cc1ccc(OCCN(C)C(=O)Cn2cc(NC(=O)CCN3CCOc4ccccc43)cn2)cc1", "note": "[Compound 85]", "activation at 10 µM": "< 30"}, {"smiles": "Cc1ccc(OC2CCCN(C(=O)Cn3cc(NC(=O)CCOc4c(F)cccc4F)cn3)C2)cc1", "note": "(stereo not drawn) [Compound 86]", "activation at 10 µM": "30 to 50"}, {"smiles": "Cc1ccc(OC2CCCN(C(=O)Cn3cc(NC(=O)CCOc4cncc(C(F)(F)F)c4)cn3)C2)cc1", "note": "(stereo not drawn) [Compound 89]", "activation at 10 µM": "< 30"}, {"smiles": "Cc1ccc(OCCN(C)C(=O)Cn2cc(NC(=O)C3CNc4ncccc4O3)cn2)cc1", "note": "(stereo not drawn) [Compound 90, N-(1-(2-(methyl(2-(p-tolyloxy)ethyl)amino)-2-oxoethyl)-1H-pyrazol-4-yl)-3,4-dihydro-2H-pyrido[3,2-b][1,4]oxazine-2-carboxamide hydrochloride]", "activation at 10 µM": "30 to 50"}, {"smiles": "Cc1ccc(OC2CCCN(C(=O)Cn3cc(NC(=O)CCOc4cccnc4C(F)(F)F)cn3)C2)cc1", "note": "(stereo not drawn) [Compound 91]", "activation at 10 µM": "< 30"}, {"smiles": "Cc1ccc(O[C@@H]2CCCN(C(=O)Cn3cc(NC(=O)CCOc4ccc(F)cc4C)cn3)C2)cc1", "note": "[Compound 93]", "activation at 10 µM": "≥ 50"}, {"smiles": "Cc1ccc(O[C@H]2CCCN(C(=O)Cn3cc(NC(=O)CCOc4ccc(F)cc4C)cn3)C2)cc1", "note": "[Compound 94]", "activation at 10 µM": "30 to 50"}, {"smiles": "Cc1ccc(OCCN(C)C(=O)Cn2cc(NC(=O)CC3CNc4cc(F)ccc4O3)cn2)cc1", "note": "(stereo not drawn) [Compound 96, 2-(4-(2-(6-fluoro-3,4-dihydro-2H-benzo[b][1,4]oxazin-2-yl)acetamido)-1H-pyrazol-1-yl)-N-methyl-N-(2-(p-tolyloxy)ethyl)acetamide]", "activation at 10 µM": "30 to 50"}, {"smiles": "Cc1ccc(OCCN(C)C(=O)Cn2cc(NC(=O)CC3CN(C(=O)OC(C)(C)C)c4cc(F)ccc4O3)cn2)cc1", "note": "(stereo not drawn) [Compound 97]", "activation at 10 µM": "≥ 50"}, {"smiles": "Cc1ccc(OC2CCCN(C(=O)Cn3cc(NC(=O)CCOc4ccc(F)cc4C)cn3)C2)cc1", "note": "(stereo not drawn) [Compound 98]", "activation at 10 µM": "≥ 50"}, {"smiles": "Cc1ccc(OC2CCCN(C(=O)Cn3cc(NC(=O)CCC4(c5ccccc5F)CC4)cn3)C2)cc1", "note": "(stereo not drawn) [Compound 100, 3-(1-(2-fluorophenyl)cyclopropyl)-N-(1-(2-oxo-2-(3-(p-tolyloxy)piperidin-1-yl)ethyl)-1H-pyrazol-4-yl)propanamide]", "activation at 10 µM": "< 30"}, {"smiles": "Cc1ccc(OCCN(C)C(=O)Cn2cc(NC(=O)C3CCCC(Oc4ccncc4)C3)cn2)cc1", "note": "(stereo not drawn) [Compound 101]", "activation at 10 µM": "< 30"}, {"smiles": "Cc1ccc(OCCN(C)C(=O)Cn2cc(NC(=O)C3CCC(Oc4ccncc4)CC3)cn2)cc1", "note": "(stereo not drawn) [Compound 102]", "activation at 10 µM": "≥ 50"}, {"smiles": "Cc1ccc(OCCN(C)C(=O)Cn2cc(NC(=O)C3CCC(Oc4cccnc4)CC3)cn2)cc1", "note": "(stereo not drawn) [Compound 103]", "activation at 10 µM": "< 30"}, {"smiles": "Cc1ccc(OCCN(C)C(=O)Cn2cc(NC(=O)C3CCC(Oc4ccncc4)C3)cn2)cc1", "note": "(stereo not drawn) [Compound 104]", "activation at 10 µM": "≥ 50"}, {"smiles": "Cc1ccc(O[C@H]2CCCN(C(=O)Cn3cc(NC(=O)C4CC(Oc5ccccn5)C4)cn3)C2)cc1", "note": "(stereo partly drawn) [Compound 105]", "activation at 10 µM": "30 to 50"}, {"smiles": "Cc1ccc(O[C@H]2CCCN(C(=O)Cn3cc(NC(=O)[C@H]4C[C@H](Oc5ccccn5)C4)cn3)C2)cc1", "note": "[Compound 106]", "activation at 10 µM": "≥ 50"}, {"smiles": "Cc1ccc(O[C@H]2CCCN(C(=O)Cn3cc(NC(=O)C4CC(Oc5cccnc5N)C4)cn3)C2)cc1", "note": "(stereo partly drawn) [Compound 107]", "activation at 10 µM": "30 to 50"}, {"smiles": "O=C(Nc1cnn(CC(=O)N2CCC[C@H](Oc3ccc(C(F)(F)F)cn3)C2)c1)C1CC(Oc2ccncc2)C1", "note": "(stereo partly drawn) [Compound 108]", "activation at 10 µM": "< 30"}, {"smiles": "O=C(Cn1cc(NC(=O)[C@H]2C[C@H](Oc3ccccc3)C2)cn1)N1CCC[C@H](Oc2ccc(C(F)(F)F)cn2)C1", "note": "[Compound 109]", "activation at 10 µM": "< 30"}, {"smiles": "Cc1ccc(OCCN(C)C(=O)Cn2cc(NC(=O)CC3CCc4cc(F)ccc4O3)cn2)cc1", "note": "(stereo not drawn) [Compound 110]", "activation at 10 µM": "< 30"}, {"smiles": "Cc1ccc(OCCN(C)C(=O)Cn2cc(NC(=O)c3cnccc3NC(=O)OC(C)(C)C)cn2)cc1", "note": "[Compound 111]", "activation at 10 µM": "≥ 50"}, {"smiles": "Cc1ccc(OCCN(C)C(=O)Cn2cc(NC(=O)c3cnccc3N)cn2)cc1", "note": "[Compound 112]", "activation at 10 µM": "< 30"}, {"smiles": "COc1ccc(N(C)C(=O)Cn2cc(NC(=O)CCOc3ccccc3)cn2)cc1", "note": "[Compound 113]", "activation at 10 µM": "< 30"}, {"smiles": "O=C(CCOc1ccccc1)Nc1cnn(CC(=O)Nc2ccc(OC(F)F)cc2)c1", "note": "[Compound 114]", "activation at 10 µM": "30 to 50"}, {"smiles": "Cc1ccc(C(=O)c2ccc(N(C)C(=O)Cn3cc(NC(=O)CCOc4ccccc4)cn3)cn2)cc1", "note": "[Compound 115]", "activation at 10 µM": "< 30"}, {"smiles": "Cc1ccc(Oc2cccc(N(C)C(=O)Cn3cc(NC(=O)CCOc4ccccc4)cn3)c2)cc1", "note": "[Compound 116]", "activation at 10 µM": "< 30"}, {"smiles": "Cc1ccc(OC2CCCCN(C(=O)Cn3cc(NC(=O)CCOc4ccccc4)cn3)C2)cc1", "note": "(stereo not drawn) [Compound 117]", "activation at 10 µM": "≥ 50"}, {"smiles": "Cc1ccc(Oc2ccc(N(C)C(=O)Cn3cc(NC(=O)CCOc4ccccc4)cn3)cc2)cc1", "note": "[Compound 118]", "activation at 10 µM": "< 30"}, {"smiles": "CN(C(=O)Cn1cc(NC(=O)CCOc2ccccc2)cn1)c1ccc(OC2CCC(C)(C)CC2)c(F)c1", "note": "[Compound 119]", "activation at 10 µM": "< 30"}, {"smiles": "Cc1ccc(O[C@H]2CCCN(C(=O)Cn3cc(NC(=O)C4CNc5ccccc5O4)cn3)C2)cc1", "note": "(stereo partly drawn) [Compound 120]", "activation at 10 µM": "< 30"}, {"smiles": "Cc1ccc(O[C@H]2CCCN(C(=O)Cn3cc(NC(=O)C4CN(C(=O)OC(C)(C)C)c5ccccc5O4)cn3)C2)cc1", "note": "(stereo partly drawn) [Compound 121]", "activation at 10 µM": "< 30"}, {"smiles": "Cc1ccc(O[C@H]2CCCN(C(=O)Cn3cc(NC(=O)[C@H]4CNc5ccccc5O4)cn3)C2)cc1", "note": "[Compound 122]", "activation at 10 µM": "< 30"}, {"smiles": "Cc1ccc(O[C@H]2CCCN(C(=O)Cn3cc(NC(=O)[C@@H]4CNc5ccccc5O4)cn3)C2)cc1", "note": "[Compound 123]", "activation at 10 µM": "< 30"}, {"smiles": "Cc1ccc(OCCN(C)C(=O)Cn2cc(NC(=O)C3Oc4cccc(C(C)C)c4O3)cn2)cc1", "note": "(stereo not drawn) [Compound 124]", "activation at 10 µM": "< 30"}, {"smiles": "Cc1ccc(OCCN(C)C(=O)Cn2cc(NC(=O)C3COc4cccc(C)c4O3)cn2)cc1", "note": "(stereo not drawn) [Compound 125]", "activation at 10 µM": "30 to 50"}, {"smiles": "Cc1ccc(OCCN(C)C(=O)Cn2cc(NC(=O)C3COc4cccc(C(C)C)c4O3)cn2)cc1", "note": "(stereo not drawn) [Compound 126]", "activation at 10 µM": "< 30"}, {"smiles": "Cc1ccc(OCCN(C)C(=O)Cn2cc(NC(=O)C3CNc4cccc(F)c4O3)cn2)cc1", "note": "(stereo not drawn) [Compound 127]", "activation at 10 µM": "30 to 50"}, {"smiles": "Cc1ccc(OCCN(C)C(=O)Cn2cc(NC(=O)C3Oc4ccccc4O3)cn2)cc1", "note": "[Compound 128]", "activation at 10 µM": "< 30"}, {"smiles": "Cc1ccc(OCCN(C)C(=O)Cn2cc(NC(=O)C3COc4c(F)cccc4O3)cn2)cc1", "note": "(stereo not drawn) [Compound 129]", "activation at 10 µM": "≥ 50"}, {"smiles": "Cc1ccc(OCCN(C)C(=O)Cn2cc(NC(=O)OC3CCCN(c4ccnc(F)n4)C3)cn2)cc1", "note": "(stereo not drawn) [Compound 130, 1-(2-fluoropyrimidin-4-yl)piperidin-3-yl (1-(2-(methyl (2-(p-tolyl-oxy)ethyl)amino)-2-oxoethyl)-1H-pyrazol-4-yl)carbamate]", "activation at 10 µM": "< 30"}, {"smiles": "Cc1ccc(OCCN(C)C(=O)Cn2cc(NC(=O)OC3CCCN(c4nccc(F)n4)C3)cn2)cc1", "note": "(stereo not drawn) [Compound 131, 1-(4-fluoropyrimidin-2-yl)piperidin-3-yl (1-(2-(methyl (2-(p-tolyloxy)ethyl)-amino)-2-oxoethyl)-1H-pyrazol-4-yl)carbamate]", "activation at 10 µM": "< 30"}, {"smiles": "Cc1ccc(OCCN(C)C(=O)Cn2cc(NC(=O)COC3CCCN(c4nccc(F)n4)C3)cn2)cc1", "note": "(stereo not drawn) [Compound 132]", "activation at 10 µM": "< 30"}, {"smiles": "Cc1ccc(OCCN(C)C(=O)Cn2cc(NC(=O)C3CNCC3Nc3ccnc(O)n3)cn2)cc1", "note": "(stereo not drawn) [Compound 133]", "activation at 10 µM": "< 30"}, {"smiles": "Cc1ccc(OC2CCC23CN(C(=O)Cn2cc(NC(=O)CCNc4nccc(F)n4)cn2)C3)cc1", "note": "(stereo not drawn) [Compound 134]", "activation at 10 µM": "< 30"}, {"smiles": "Cc1ccc(OCCN(C)C(=O)Cn2cc(NC(=O)C3CC(Nc4ccncc4)C3)cn2)cc1", "note": "(stereo not drawn) [Compound 135]", "activation at 10 µM": "< 30"}, {"smiles": "Cc1ccc(O[C@H]2CCCN(C(=O)Cn3cc(NC(=O)CCNc4nccc(F)n4)cn3)C2)cc1", "note": "[Compound 136]", "activation at 10 µM": "< 30"}, {"smiles": "Cc1ccc(OCCN(C)C(=O)Cn2cc(NC(=O)COC3CCCN(c4ccnc(F)n4)C3)cn2)cc1", "note": "(stereo not drawn) [Compound 137]", "activation at 10 µM": "< 30"}, {"smiles": "Cc1ccc(OCCN(C)C(=O)Cn2cc(NC(=O)C3CN(c4ccccc4)C3)cn2)cc1", "note": "[Compound 138]", "activation at 10 µM": "< 30"}]}]}
